# Experimental data: article PMC11984586, “A novel spider toxin as a selective antagonist of the Kv1 subfamily of voltage-gated potassium channels through gating modulation” (The Journal of Biological Chemistry, 2025)
# Bridge positions count the residues as written; N and C are the ends. Peptide text beside a SMILES is read from it.
# Experiments:
# Type in all cases: cell-based
# [1] = target: T1, Kv1.1/1.3 S5-S6 chimeric channel (Homo sapiens, UniProt Q09470, A352P/E350D/E351D/E353T/H355G/S369T/Y379H); assay: Whole-cell patch clamp, chimeric channel; conditions: +30 mV, mean ± SD
# T1 construct: expressed in transfected cells; host or cells: CHO-K1
# Excerpt: (§1) To investigate the structural determinants underlying the differential regulatory effects of MrVIII on Kv1 channels, we employed a chimeric channel strategy. Using Kv1.3 as the template, the S1-S2, S3-S4, and S5-S6 transmembrane helices and their respective linkers from Kv1.1 were inserted to generate chimeras, generating the Kv1.3/1.1 S1-S2, Kv1.3/1.1 S3-S4, and Kv1.3/1.1 S5-S6 chimeric channels. […] These findings indicate that the S3-S4 is the key determinant for the differential inhibition of Kv1.1 and Kv1.3 by MrVIII. To further validate this conclusion, we constructed a reverse chimeric channel using Kv1.1 as the template, inserting the corresponding regions from Kv1.3 into Kv1.1. […] This finding more directly illustrates the exchange of the channel's voltage-dependence phenotype in toxin inhibition by swapping this S3-S4 between Kv1.1 and Kv1.3. […] In addition to confirming the differential role of S3-S4 between Kv1.1 and Kv1.3, we also substituted the S3-S4 of Kv1.4 and Kv1.7 into Kv1.3 to analyze MrVIII's inhibition profile. […] The IC50 for Kv1.3/1.7 S3-S4 could not be fitted, and inhi%(495 ms) was only 23.1 ± 10.0% (Fig. S2, E and F). […]
# (§2) CHO-K1 cells were selected for expressing Kv channels due to their lack of endogenous Kv channels, while HEK293 or ND7/23 cells were used for Nav and Cav channel expression. […] After 4 to 6 h transfection, cells were seeded onto poly-lysine–coated coverslips, and 24 to 36 h later, transfected cells were ready for patch-clamp analysis. […]
# (§3) For Kv current recordings, the bath solution contained (in mM) the following: 140 NaCl, 5 KCl, 1 MgCl2, 2 CaCl2, 10 glucose, and 10 Hepes (pH 7.3, adjusted with NaOH), and the pipette solution contained (in mM) the following: 140 KCl, 2.5 MgCl2, 11 EGTA, and 10 Hepes (pH 7.3, adjusted with KOH). […] Whole cell conductance (G) at each depolarizing voltage (V) was determined using the equation: G = I/(V−Vrev), where I is the current amplitude, and Vrev is the reversal potential. […]
# [2] = target: T2, Kv1.3/1.1 S5-S6 chimeric channel (Homo sapiens, UniProt P22001, D422E/D423E/G427H/H451Y/P424A/T425E/T441S); assay: Whole-cell patch clamp, chimeric channel; conditions: +30 mV, 500 ms, holding −80 mV, mean ± SD, n = 4-5, read-out: IC50, Kv1.3/1.1 S5-S6 current
# T2 construct: expressed in transfected cells; host or cells: CHO-K1
# Excerpt: as §1, §2, §3
# Kv1.3/E346A = target: T3, Kv1.3/E346A (Homo sapiens, UniProt P22001, E346A); assay: Whole-cell patch clamp, Kv1.3 alanine mutant
# T3 construct: expressed in transfected cells; host or cells: CHO-K1
# Experimental: (§4) MrVIII inhibits Kv1 channels by stabilizing the voltage sensor in its resting state. […] To investigate this hypothesis, we constructed a series of alanine mutants in the S3-S4 region of the Kv1.3 channel, covering residues I336 to L363, to identify critical interactions between the peptide and the channel (Fig. 6A). […] For the remaining mutants that retained functional current expression, we evaluated the inhibitory activity of 100 nM MrVIII. […] The lack of conserved multiple interaction sites may explain the absence of activity on other Kv subfamily channels (Fig. S3). In summary, this study identified key amino acid residues in the S3-S4 region of the Kv1.3 channel that interact with MrVIII, providing a foundation for further exploration into the peptide's mechanism of action.
# (§5) The cDNA of hKv1.1, hKv1.2, hKv1.3, rKv1.4, hKv1.5, mKv1.6, and hKv1.7 were subcloned into mammalian expression vectors pcDNA3.1 or pCMV-blank vectors, as well as other plasmids described previously ([35]). Channel mutants were generated by site-directed mutations. Briefly, the parental channel plasmid was amplified using a pair of oppositely directed primers harboring the designed mutation site, with KOD Fx (TOYOBO Co, Ltd). The resulting PCR mix was treated with FastDigest DpnI (Thermo Fisher Scientific) to remove the methylated template. Ten microliters of the digested product was then used to transform 100 μl E. coli DH5α competent cells. Transformants were randomly picked and sequenced to confirm the presence of the intended mutation.
# (§6) CHO-K1 cells were selected for expressing Kv channels due to their lack of endogenous Kv channels, while HEK293 or ND7/23 cells were used for Nav and Cav channel expression. CHO-K1 cells were cultured in a Dulbecco's modified Eagle's medium/Ham's F-12 nutrient mixture (DMEM-F12) medium, and HEK293T and ND7/23 cells in DMEM medium, all supplemented with 10% fetal bovine serum and 1% penicillin-streptomycin (all from Gibco, Thermo Fisher Scientific, Inc) under standard conditions (37 °C, 5% CO2, and saturated humidity). These cell lines were purchased from Stem Cell Bank, Chinese Academy of Sciences. Channel plasmids were cotransfected with pEGFP-N1 (encoding GFP) into the respective cells using lipofectamine 2000, following the manufacturer's instructions (Invitrogen, Thermo Fisher Scientific, Inc.). Nav1.9-GFP plasmid was transfected into ND7/23 using the X-tremeGENE HP DNA Transfection Reagent (Roche). After 4 to 6 h transfection, cells were seeded onto poly-lysine–coated coverslips, and 24 to 36 h later, transfected cells were ready for patch-clamp analysis.
# (§7) Patch clamp experiments were conducted using an electrophysiology platform comprising a MultiClamp 700B amplifier and an Axon Digidata 1550 AD/DA convertor (Axon Instruments). Data acquisition was performed with pClamp 10.5 software (Axon Instruments). All experiments were performed at room temperature.
# (§8) For Kv current recordings, the bath solution contained (in mM) the following: 140 NaCl, 5 KCl, 1 MgCl2, 2 CaCl2, 10 glucose, and 10 Hepes (pH 7.3, adjusted with NaOH), and the pipette solution contained (in mM) the following: 140 KCl, 2.5 MgCl2, 11 EGTA, and 10 Hepes (pH 7.3, adjusted with KOH). Series resistance was maintained below 10 MΩ and compensated to 80%. Concentration–response curves were fitted by the Hill equation to determine the toxin's potency. Whole cell conductance (G) at each depolarizing voltage (V) was determined using the equation: G = I/(V−Vrev), where I is the current amplitude, and Vrev is the reversal potential. The reversal potential for K^+ current was estimated to be −85.6 mV using the Nernst equation. G-V curves were obtained by plotting the normalized conductance as a function of V and fitted by the Boltzmann equation: y = 1/(1+ exp((Va-V)/k)), which Va is the midpoint voltage, V is the test potential, and k is the slope factor. The steady-state fast inactivation of Kv1.3 was measured using a two-pulses protocol. […]
# Kv1.3/T342A = target: T4, Kv1.3/T342A (Homo sapiens, UniProt P22001, T342A); assay: Whole-cell patch clamp, Kv1.3 alanine mutant
# T4 construct: expressed in transfected cells; host or cells: CHO-K1
# Experimental: as §4, §5, §6, §7, §8
# [3] = 100 nM MrVIII on mutant compared with 10 nM on WT Kv1.3, +30 mV, n = 4–7
# T4 sequence (P22001 whole entry T342A): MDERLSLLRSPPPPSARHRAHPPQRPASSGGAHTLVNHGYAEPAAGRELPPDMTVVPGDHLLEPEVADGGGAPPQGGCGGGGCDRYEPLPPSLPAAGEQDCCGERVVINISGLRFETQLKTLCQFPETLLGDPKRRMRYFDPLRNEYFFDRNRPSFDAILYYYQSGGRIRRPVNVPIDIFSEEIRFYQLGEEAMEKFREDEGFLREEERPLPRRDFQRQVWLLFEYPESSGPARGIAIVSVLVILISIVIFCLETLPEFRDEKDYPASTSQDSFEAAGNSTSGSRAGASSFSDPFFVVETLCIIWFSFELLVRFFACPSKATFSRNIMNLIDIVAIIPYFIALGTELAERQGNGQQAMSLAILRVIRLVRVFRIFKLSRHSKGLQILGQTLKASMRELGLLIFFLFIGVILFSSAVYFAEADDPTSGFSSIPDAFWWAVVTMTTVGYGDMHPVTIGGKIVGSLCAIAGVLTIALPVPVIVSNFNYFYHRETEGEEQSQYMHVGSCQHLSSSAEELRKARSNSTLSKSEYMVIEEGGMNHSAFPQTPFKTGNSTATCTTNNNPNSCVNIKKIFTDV
# T1 sequence (Q09470 whole entry E350D/E351D/A352P/E353T/H355G/S369T/Y379H): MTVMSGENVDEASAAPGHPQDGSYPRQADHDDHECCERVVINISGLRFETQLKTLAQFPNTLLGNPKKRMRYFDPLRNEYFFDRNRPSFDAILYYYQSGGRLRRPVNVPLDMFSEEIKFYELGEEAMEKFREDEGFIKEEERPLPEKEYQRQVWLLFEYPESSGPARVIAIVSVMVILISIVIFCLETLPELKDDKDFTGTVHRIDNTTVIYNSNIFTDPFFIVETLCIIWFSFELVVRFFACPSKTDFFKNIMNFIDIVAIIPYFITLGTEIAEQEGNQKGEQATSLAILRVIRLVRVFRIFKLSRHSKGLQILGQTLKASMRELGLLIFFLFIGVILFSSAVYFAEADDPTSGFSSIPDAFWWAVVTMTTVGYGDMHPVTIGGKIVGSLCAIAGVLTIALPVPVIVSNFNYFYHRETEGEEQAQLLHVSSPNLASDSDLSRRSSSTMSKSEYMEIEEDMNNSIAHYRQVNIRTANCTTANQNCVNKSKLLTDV
# T3 sequence (P22001 whole entry E346A): as the sequence (P22001 whole entry T342A) above, with A342T, E346A counted along it
# T2 sequence (P22001 whole entry D422E/D423E/P424A/T425E/G427H/T441S/H451Y): as the sequence (P22001 whole entry T342A) above, with A342T, D422E, D423E, P424A, T425E, G427H, T441S, H451Y counted along it
smiles,measurement,setting,value
"CC[C@H](C)[C@@H]1NC(=O)[C@H](Cc2ccc(O)cc2)NC(=O)[C@H](CCC(N)=O)NC(=O)[C@@H]2CCCN2C(=O)[C@@H]2CSSC[C@H](NC(=O)[C@H](C)NC(=O)[C@H](CO)NC(=O)[C@H](CCC(=O)O)NC(=O)[C@H](CCC(=O)O)NC(=O)[C@@H](N)[C@@H](C)O)C(=O)NCC(=O)NCC(=O)N[C@@H](Cc3ccccc3)C(=O)N[C@@H](CC(N)=O)C(=O)N[C@@H](C)C(=O)N[C@@H](CCCNC(=N)N)C(=O)N[C@H]3CSSC[C@H](NC1=O)C(=O)N[C@@H](CCCCN)C(=O)NCC(=O)N[C@@H](Cc1c[nH]c4ccccc14)C(=O)N[C@@H](CCCNC(=N)N)C(=O)N[C@@H]([C@@H](C)O)C(=O)N[C@@H](CCCCN)C(=O)N[C@@H](CCCNC(=N)N)C(=O)N[C@H](C(=O)N[C@@H](CC(C)C)C(=O)N[C@@H](CC(N)=O)C(=O)N1CCC[C@H]1C(=O)O)CSSC[C@H](NC(=O)[C@H](CCCCN)NC(=O)[C@H](Cc1c[nH]cn1)NC(=O)[C@H](CC(C)C)NC(=O)[C@@H]1CCCN1C3=O)C(=O)N2 [MrVIII] (H-TEESACGGFNARCPLHKCCPQYICKGWRTKRCLNP-OH; disulfide 6-19, 13-24, 18-32; N-terminus and C-terminus assumed)",IC50,"[1]; current at 50 ms, n = 4-5",48.9 ± 26.6 nM
same,"inhi%(495 ms), Kv1.1/1.3 S5-S6 current",[1]; current at 495 ms,50.1 ± 19.9%
same,IC50,[2],3 ± 0.9 nM
same,"decrease of inhibitory potency vs WT Kv1.3, E346A",Kv1.3/E346A; [3],more than 10 fold
same,IC50,"Kv1.3/E346A; +30 mV, 500 ms, mean ± SD, n = 4–6, SD, read-out: IC50, Kv1.3/E346A current",51.1 ± 21.1 nM
same,"decrease of inhibitory potency vs WT Kv1.3, T342A",Kv1.3/T342A; [3],more than 10 fold
same,IC50,"Kv1.3/T342A; current at 50 ms, +30 mV, mean ± SD, n = 4–6, SD",143 ± 38.2 nM
same,"inhi%(495 ms), Kv1.3/T342A current","Kv1.3/T342A; current at 495 ms, +30 mV, mean ± SD, n = 4–6, SD",27.7 ± 12.9%
